Reference: ChEMBL document CHEMBL4673282, “Identification of a New Heterocyclic Scaffold for Inhibitors of the Polo-Box Domain of Polo-like Kinase 1” (J Med Chem, 2020)
In brackets after ≈: the same amount, converted by molar mass. Activity calls are given as the source filed them. No cut-off for these calls is given here.

Experiments:
[1] = biological target: Serine/threonine-protein kinase PLK3 (Homo sapiens) (UniProt Q9H4B4); experiment: Inhibition of FITC-Ahx-DPPLHSpTAI-NH2 binding to Plk3 PBD (unknown origin) expressed in bacterial expression system measured after 30 mins by fluorescence polarization assay
[2] = biological target: Serine/threonine-protein kinase PLK2 (Homo sapiens, UniProt Q9NYY3); experiment: Inhibition of FITC-Ahx-DPPLHSpTAI-NH2 binding to Plk2 PBD (unknown origin) expressed in bacterial expression system measured after 30 mins by fluorescence polarization assay; conditions: 0.5 h
[3] = Aqueous solubility of compound; type: physicochemical; conditions: buffer
in vitro = conditions: PAMPA
Description: Permeability of the compound by PAMPA

[4] = Half life in rat liver microsomes at 1 uM measured up to 60 mins in presence of NADPH generating system; conditions: 1 h
[5] = biological target: T1, Serine/threonine-protein kinase PLK1 (Homo sapiens, UniProt P53350); experiment: Inhibition of biotin-Ahx-CETFDPPLHSpTAI-NH2 binding to recombinant human full-length HA-EGFP-tagged Plk1 PBD expressed in HEK293A cells preincubated for 30 mins followed by biotin-Ahx-CETFDPPLHSpTAI-NH2 addition and measured after 1 hr by 3,3',5,5'-tetramethylbenzidine substrate based ELISA; type: cell-based, HEK293-A
[6] = Half life in mouse cytosol; type: ADME, subcellular
[7] = Half life in rat cytosol; type: ADME, subcellular
HeLa [8] = experiment: Induction of mitotic arrest in human HeLa cells assessed as rounded cells with apoptosis at 100 uM measured after 12 hrs by DAPI staining based phase contrast microscopic analysis; type: functional, cell-based
[9] = biological target: T1, Serine/threonine-protein kinase PLK1; experiment: Inhibition of Plk1 PBD in human HeLa cells assessed as reduction in plk1 localization to kinetochores at 100 uM measured after 12 hrs by immunostaining based assay; type: cell-based
HeLa [10] = experiment: Induction of mitotic arrest in human HeLa cells assessed as abnormal spindle morphology at 100 uM measured after 12 hrs by DAPI staining based immunoassay; type: functional, cell-based
HeLa [11] = experiment: Induction of mitotic arrest in human HeLa cells assessed as apperance of aberrant chromosomal morphology at 100 uM measured after 12 hrs by DAPI staining based phase contrast microscopic analysis; type: functional, cell-based
[12] = Drug metabolism in C57BL/6 mouse assessed as demethylation in serum at 20 mg/kg, ip measured after 15 to 240 mins by UPLC-ESI-QTOFMS analysis; type: ADME, organism-based; conditions: in vivo, time 15-240 min
[13] = Half life in human cytosol; type: ADME, subcellular
[14] = Toxicity in C57BL/6 mouse at 20 mg/kg, ip; type: organism-based; conditions: in vivo
[15] = Drug metabolism in C57BL/6 mouse assessed as hydroxylation in serum at 20 mg/kg, ip measured after 15 mins by UPLC-ESI-QTOFMS analysis; type: ADME, organism-based; conditions: in vivo
[16] = biological target: T1, Serine/threonine-protein kinase PLK1; experiment: Inhibition of Plk1 PBD in human HeLa cells assessed as reduction in plk1 localization to centrosomes at 100 uM measured after 12 hrs by immunostaining based assay; type: cell-based
HeLa [17] = experiment: Antiproliferative activity against human HeLa cells assessed as reduction in cell population at 100 uM measured after 3 days by DAPI staining based phase contrast microscopic analysis relative to control; type: functional; parameters: scale not given: the % may be the effect or the level left; conditions: time 3 day
[18] = biological target: T2, Muscarinic acetylcholine receptor M5 (Homo sapiens, UniProt P08912); experiment: Inhibition of M5 (unknown origin) at 10 uM relative to control
T2 sequence (P08912 whole entry): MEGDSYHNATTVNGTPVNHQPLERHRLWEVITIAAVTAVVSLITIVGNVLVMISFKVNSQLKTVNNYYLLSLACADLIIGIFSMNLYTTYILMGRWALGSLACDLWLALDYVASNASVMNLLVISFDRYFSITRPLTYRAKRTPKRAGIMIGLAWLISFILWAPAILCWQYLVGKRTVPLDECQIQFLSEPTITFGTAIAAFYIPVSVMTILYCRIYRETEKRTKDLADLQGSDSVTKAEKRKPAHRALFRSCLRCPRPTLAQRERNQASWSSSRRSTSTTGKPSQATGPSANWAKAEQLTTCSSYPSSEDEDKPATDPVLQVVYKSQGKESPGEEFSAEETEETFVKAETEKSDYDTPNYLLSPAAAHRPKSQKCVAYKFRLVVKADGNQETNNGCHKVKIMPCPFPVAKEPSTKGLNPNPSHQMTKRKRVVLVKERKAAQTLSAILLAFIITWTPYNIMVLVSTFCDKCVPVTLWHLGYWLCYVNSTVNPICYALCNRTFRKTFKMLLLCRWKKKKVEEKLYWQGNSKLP

[19] = biological target: Muscarinic acetylcholine receptor M3 (Homo sapiens, UniProt P20309); experiment: Inhibition of M3 (unknown origin) at 10 uM relative to control
[20] = biological target: T3, Muscarinic acetylcholine receptor M4 (Homo sapiens, UniProt P08173); experiment: Inhibition of M4 (unknown origin) at 10 uM relative to control
T3 sequence (P08173 whole entry): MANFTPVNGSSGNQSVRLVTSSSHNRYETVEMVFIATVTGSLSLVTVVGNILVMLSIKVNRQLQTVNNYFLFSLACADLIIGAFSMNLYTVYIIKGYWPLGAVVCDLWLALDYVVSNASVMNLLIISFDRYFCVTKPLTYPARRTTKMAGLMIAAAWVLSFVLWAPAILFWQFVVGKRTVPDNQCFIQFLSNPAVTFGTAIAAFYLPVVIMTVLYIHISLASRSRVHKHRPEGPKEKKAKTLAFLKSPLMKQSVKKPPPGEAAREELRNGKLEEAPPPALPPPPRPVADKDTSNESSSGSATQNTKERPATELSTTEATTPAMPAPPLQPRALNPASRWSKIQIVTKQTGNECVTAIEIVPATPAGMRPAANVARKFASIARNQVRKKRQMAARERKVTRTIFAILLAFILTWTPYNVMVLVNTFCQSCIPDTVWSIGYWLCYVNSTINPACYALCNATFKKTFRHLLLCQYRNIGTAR

[21] = PAMPA
Description: Permeability of the compound by PAMPA

Sequence of Serine/threonine-protein kinase PLK3 (Homo sapiens) (Q9H4B4 whole entry, looked up): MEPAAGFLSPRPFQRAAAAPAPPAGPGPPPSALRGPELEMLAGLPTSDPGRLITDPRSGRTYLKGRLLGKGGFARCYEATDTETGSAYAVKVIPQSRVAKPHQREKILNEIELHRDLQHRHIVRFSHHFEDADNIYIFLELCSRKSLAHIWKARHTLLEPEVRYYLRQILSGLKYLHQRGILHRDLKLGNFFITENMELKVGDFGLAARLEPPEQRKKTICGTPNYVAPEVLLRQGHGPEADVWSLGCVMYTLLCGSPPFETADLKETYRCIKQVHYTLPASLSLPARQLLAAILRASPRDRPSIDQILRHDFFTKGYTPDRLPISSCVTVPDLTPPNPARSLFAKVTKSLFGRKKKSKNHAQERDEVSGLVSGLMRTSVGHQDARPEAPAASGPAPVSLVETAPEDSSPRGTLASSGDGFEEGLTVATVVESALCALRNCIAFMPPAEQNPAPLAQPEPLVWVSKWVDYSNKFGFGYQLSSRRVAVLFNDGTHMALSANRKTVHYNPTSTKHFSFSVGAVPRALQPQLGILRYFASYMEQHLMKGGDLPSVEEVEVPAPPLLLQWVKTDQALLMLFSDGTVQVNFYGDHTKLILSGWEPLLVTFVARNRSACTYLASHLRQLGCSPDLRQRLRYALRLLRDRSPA
T1 sequence (P53350 whole entry): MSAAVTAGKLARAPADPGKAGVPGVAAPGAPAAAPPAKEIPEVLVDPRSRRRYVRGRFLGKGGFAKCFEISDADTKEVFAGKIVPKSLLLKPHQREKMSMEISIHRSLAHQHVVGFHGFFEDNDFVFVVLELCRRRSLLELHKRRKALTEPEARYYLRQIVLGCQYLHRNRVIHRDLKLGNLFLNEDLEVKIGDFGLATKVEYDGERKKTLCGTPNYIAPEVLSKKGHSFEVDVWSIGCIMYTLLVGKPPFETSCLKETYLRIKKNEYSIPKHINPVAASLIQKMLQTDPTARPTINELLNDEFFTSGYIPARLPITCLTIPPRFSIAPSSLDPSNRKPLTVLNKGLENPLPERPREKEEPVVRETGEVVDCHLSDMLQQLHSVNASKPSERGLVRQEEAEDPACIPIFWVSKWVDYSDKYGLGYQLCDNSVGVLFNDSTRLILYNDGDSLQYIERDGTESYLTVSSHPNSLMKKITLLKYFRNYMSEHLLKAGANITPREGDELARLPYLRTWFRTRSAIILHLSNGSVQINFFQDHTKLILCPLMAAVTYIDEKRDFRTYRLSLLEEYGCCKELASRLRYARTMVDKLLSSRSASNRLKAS
Sequence of Muscarinic acetylcholine receptor M3 (P20309 whole entry): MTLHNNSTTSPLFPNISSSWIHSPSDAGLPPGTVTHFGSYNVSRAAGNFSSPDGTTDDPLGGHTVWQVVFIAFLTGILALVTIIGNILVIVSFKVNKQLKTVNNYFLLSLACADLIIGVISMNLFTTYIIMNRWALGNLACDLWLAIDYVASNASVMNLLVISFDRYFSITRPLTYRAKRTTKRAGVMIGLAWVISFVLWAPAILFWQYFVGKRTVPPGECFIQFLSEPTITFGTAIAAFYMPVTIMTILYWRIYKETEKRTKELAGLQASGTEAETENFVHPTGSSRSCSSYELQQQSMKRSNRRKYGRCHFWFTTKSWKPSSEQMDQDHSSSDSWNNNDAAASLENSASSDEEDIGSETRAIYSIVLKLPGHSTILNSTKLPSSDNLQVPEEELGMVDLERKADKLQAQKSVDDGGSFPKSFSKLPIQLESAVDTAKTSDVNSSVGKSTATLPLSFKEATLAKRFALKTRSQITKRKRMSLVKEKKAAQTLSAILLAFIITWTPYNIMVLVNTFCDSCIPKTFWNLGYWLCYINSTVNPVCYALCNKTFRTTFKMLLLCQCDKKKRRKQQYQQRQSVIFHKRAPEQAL
Sequence of Serine/threonine-protein kinase PLK2 (Q9NYY3 whole entry): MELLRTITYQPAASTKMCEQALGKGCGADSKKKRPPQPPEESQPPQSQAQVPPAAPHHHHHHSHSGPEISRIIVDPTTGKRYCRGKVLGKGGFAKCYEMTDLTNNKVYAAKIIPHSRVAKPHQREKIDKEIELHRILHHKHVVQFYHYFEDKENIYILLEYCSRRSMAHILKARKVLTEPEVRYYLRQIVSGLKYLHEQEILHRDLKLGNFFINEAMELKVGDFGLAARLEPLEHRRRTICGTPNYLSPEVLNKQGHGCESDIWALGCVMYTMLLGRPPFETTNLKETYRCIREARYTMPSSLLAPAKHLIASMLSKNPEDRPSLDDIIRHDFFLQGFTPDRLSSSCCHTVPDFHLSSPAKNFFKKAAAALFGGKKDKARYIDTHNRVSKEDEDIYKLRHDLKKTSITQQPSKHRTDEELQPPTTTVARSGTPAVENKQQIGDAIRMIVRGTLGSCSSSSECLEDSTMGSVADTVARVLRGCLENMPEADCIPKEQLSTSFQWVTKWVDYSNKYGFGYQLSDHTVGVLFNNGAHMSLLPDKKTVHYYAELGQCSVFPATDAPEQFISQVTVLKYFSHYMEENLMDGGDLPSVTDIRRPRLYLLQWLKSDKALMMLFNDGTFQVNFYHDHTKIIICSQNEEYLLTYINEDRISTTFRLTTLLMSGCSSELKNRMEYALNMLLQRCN

Structure (SMILES)	solubility [3] [µg/mL]	Papp (in vitro) [×10⁻⁶ cm/s]	t1/2 [4] [min]	also measured
CC(=O)N1CCC[C@H]1C(=O)N[C@@H](CC(C)C)C(=O)N[C@@H](Cc1cnc[nH]1)C(=O)N[C@@H](CO)C(=O)N[C@H](C(=O)O)[C@@H](C)OP(=O)(O)O	–	–	–	inhibition [1]: inactive
O=c1c2cc(F)ccc2n2c(=S)[nH]nc2n1CC1CC1	16.2 (≈ 55.8 µM)	46	> 30	inhibition (INH) [2]: Not Active; inhibition [1]: inactive
CCCn1c(=O)c2ccccc2n2c(SC)nnc12	–	–	–	IC50 [5]: > 50 µM; t1/2 [6]: <= 120 min; t1/2 [7]: <= 120 min; Activity (HeLa [8]): Active; inhibition [9]: 50%; Activity (HeLa [10]): Active; Activity (HeLa [11]): Active; Drug metabolism [12]: Metabolite_Detected; t1/2 [13]: <= 120 min; Activity [14]: Non-Toxic; Drug metabolism [15]: Metabolite_Detected; inhibition [16]: 20%; Activity (HeLa [17]): 50%
CCCn1c(=O)c2cccc(F)c2n2c(SC)nnc12	–	–	–	Activity (HeLa [8]): Active; Activity (HeLa [11]): Active
C=CCn1c(=O)c2ccccc2n2c(S)nnc12	19.4 (≈ 75.1 µM)	–	–	IC50 [5]: 1.31 µM
CC(=O)NCCCn1c(=O)c2cc(F)ccc2n2c(=S)[nH]nc12	> 50	18	> 30	–
O=C(O)CCC(=O)NCCCn1c(=O)c2cc(F)ccc2n2c(=S)[nH]nc12	> 58	< 1	> 30	–
NS(=O)(=O)CCCC(=O)NCCCn1c(=O)c2cc(F)ccc2n2c(=S)[nH]nc12	42.4 (≈ 95.8 µM)	3	> 30	–
NCCCn1c(=O)c2cc(F)ccc2n2c(=S)[nH]nc12	27 (≈ 92 µM)	16.8	> 30	inhibition at 10 µM [18]: 84%; inhibition at 10 µM [19]: 100%; inhibition at 10 µM [20]: 73%
CN(C)c1ccc2c(c1)c(=O)n(CCc1ccccc1)c1n[nH]c(=S)n21	< 1	356	13.3	–
CC(C)(C)OC(=O)NCCCCCC(=O)NCCCn1c(=O)c2cc(F)ccc2n2c(=S)[nH]nc12	> 75	405	> 30	–
CC(=O)Nc1ccc2c(c1)c(=O)n(CCc1ccccc1)c1n[nH]c(=S)n21	2.2 (≈ 5.8 µM)	253	> 30	–
O=c1c2cc(F)ccc2n2c(=S)[nH]nc2n1CCc1ccccn1	13 (≈ 38.1 µM)	355	> 30	–
O=c1c2cc(F)ccc2n2cnnc2n1CCc1ccccc1	14.8 (≈ 48 µM)	924	11.8	–
CCOCCCn1c(=O)c2ccccc2n2c(S)nnc12	15.5 (≈ 50.9 µM)	–	–	IC50 [5]: 1.68 µM
CC(=O)N1CCC[C@H]1C(=O)N[C@@H](CC(C)C)C(=O)N[C@@H](Cc1cnc[nH]1)C(=O)N[C@@H](CO)C(=O)N[C@H](C(=O)O)[C@@H](C)O	–	–	–	inhibition [1]: inactive
COc1cccc(CC(=O)NCCCn2c(=O)c3cc(F)ccc3n3c(=S)[nH]nc23)c1	–	300	20.1	solubility ([3]; read-out: solubility): > 65 µg/mL
O=c1c2cc(Cl)ccc2n2c(=S)[nH]nc2n1CCC(F)(F)F	5.1 (≈ 14.6 µM)	257	> 30	–
O=c1c2cc(F)ccc2n2c(=S)[nH]nc2n1CCC1CCC(F)(F)CC1	< 1	201	> 30	–
O=c1c2cc(F)ccc2n2c(=S)[nH]nc2n1CCc1cccnc1	25.1 (≈ 73.5 µM)	< 1	> 30	–
CCCn1c(=O)c2cc(F)ccc2n2c(SC)nnc12	–	–	–	t1/2 [6]: <= 120 min; t1/2 [7]: <= 120 min; Activity (HeLa [8]): Active; Activity (HeLa [11]): Active; t1/2 [13]: <= 120 min

Structure (SMILES)	solubility [3] [µg/mL]	Papp (in vitro) [×10⁻⁶ cm/s]	t1/2 [4] [min]	also measured
NCCCn1c(=O)c2cc(F)ccc2n2c(=S)[nH]nc12.O=C(O)C(F)(F)F	> 43	< 1	> 30	–
O=c1c2ccccc2n2c(=S)[nH]nc2n1CCC(F)(F)F	23.3 (≈ 74.1 µM)	82	> 30	–
O=c1c2cc(F)ccc2n2c(=S)[nH]nc2n1CCN1CCC(F)(F)CC1	20.2 (≈ 52.7 µM)	234	> 30	–
CC(C)CCn1c(=O)c2ccccc2n2c(=S)[nH]nc12	8 (≈ 27.7 µM)	–	–	IC50 [5]: 1.73 µM
O=c1c2cc(F)ccc2n2c(=S)[nH]nc2n1CCC(F)(F)F	17.3 (≈ 52.1 µM)	117	> 30	–
O=C(CN1CCOCC1)NCCCn1c(=O)c2cc(F)ccc2n2c(=S)[nH]nc12	> 62	< 1	> 30	–
CCCCCn1c(=O)c2ccccc2n2c(S)nnc12	4.2 (≈ 14.6 µM)	–	–	IC50 [5]: 1.97 µM
C[C@H]1C[C@@H]1n1c(=O)c2cc(F)ccc2n2c(=S)[nH]nc12 (relative stereo)	13.2 (≈ 45.5 µM)	–	> 30	permeability [21]: 188 10^-6 cm/s
CCCn1c(=O)c2ccccc2n2c(=S)n(CC(=O)c3ccccc3)nc12	–	–	–	IC50 [5]: > 50 µM
COCCCn1c(=O)c2ccccc2n2c(S)nnc12	31.2 (≈ 107 µM)	–	–	IC50 [5]: 1.75 µM
O=c1c2cccc(F)c2n2c(=S)[nH]nc2n1CCc1ccccc1	3.4 (≈ 9.99 µM)	141	> 30	–
O=c1c2cc(F)ccc2n2c(=S)[nH]nc2n1CCc1ccc(Cl)cc1	1.2 (≈ 3.2 µM)	< 1	> 30	–
O=c1c2cc(F)ccc2n2c(=S)[nH]nc2n1CCCO	> 43	222	> 30	–
CCCCn1c(=O)c2ccccc2n2c(S)nnc12	8.5 (≈ 31 µM)	77.5	> 30	IC50 [5]: 1.03 µM
CN1CCN(CC(=O)NCCCn2c(=O)c3cc(F)ccc3n3c(=S)[nH]nc23)CC1	> 64	< 1	> 30	–
O=c1c2cc(F)ccc2n2c(=S)[nH]nc2n1CCN1CCCCC1	2.4 (≈ 6.91 µM)	358	> 30	–
Cc1cccc(-n2c(=O)c3ccccc3n3c(S)nnc23)c1C	–	–	–	IC50 [5]: 1.85 µM
O=c1c2ccc(F)cc2n2c(=S)[nH]nc2n1CCc1ccccc1	< 1	91	22.7	–
CCn1c(=O)c2ccccc2n2c(=S)[nH]nc12	> 36	427	> 30	–
O=c1c2cc(F)ccc2n2c(=S)[nH]nc2n1CCN1CCOCC1	> 52	67	> 30	–
